Assay results reported in patent publication US20260356957A1, “METHODS FOR TREATMENT OF NON-SMALL CELL LUNG CANCER (NSCLC)” (Janssen Biotech, Inc., priority 2023, published 2026).

Tested on: EGFR-mutated locally advanced or metastatic NSCLC
Assay: MARIPOSA Phase 3, objective response by BICR (RECIST v1.1)
Type: in vivo, human

C=CC(=O)Nc1cc(Nc2nccc(-c3cn(C)c4ccccc34)n2)c(OC)cc1N(C)CCN(C)C [Osimertinib] was tested, and the “Best overall response: Not evaluable” value was 11 (3) no. (%), the “Best overall response: Progressive disease” value was 11 (3) no. (%) and the “Best overall response: Stable disease” value was 42 (10) no. (%). For the same compound, the “Best overall response: Complete response” value (all responders) was 15 (4) no. (%), the “Best overall response: Partial response” value (all responders) was 335 (81) no. (%) and the “Complete Response (CR)” value (best overall response) was 15 (3.0%) (%). For the same compound, the “Not Evaluable (NE)” value (best overall response) was 11 (2.7%) (%), the “Partial Response (PR)” value (best overall response) was 335 (80.9%) (%) and the “Progressive Disease (PD)” value (best overall response) was 11 (2.7%) (%). The “Objective response rate, Patients (95% CI), all responders” value (measurable disease at baseline) was 85 (81-88) %, the “Objective response, Patients (95% CI) including only confirmed responders” value (measurable disease at baseline) was 76 (71-80) % and the “Objective response rate (CR + PR)” value (measurable disease at baseline, RECIST v1.1) was 350 (84.5%) (%). For the same compound, the “Objective response rate, Patients (95% CI), all responders” value (measurable disease at baseline, listed as osimertinib) was 85%.
